Experimental data taken from ChEMBL document CHEMBL1201862, “PubChem BioAssay data set” (2004).
Active and inactive are the calls of the source.

How the values were obtained:
[1] = target: T1, Apoptotic protease-activating factor 1 (Homo sapiens, UniProt O14727); assay type: functional
T1 sequence (O14727 whole entry): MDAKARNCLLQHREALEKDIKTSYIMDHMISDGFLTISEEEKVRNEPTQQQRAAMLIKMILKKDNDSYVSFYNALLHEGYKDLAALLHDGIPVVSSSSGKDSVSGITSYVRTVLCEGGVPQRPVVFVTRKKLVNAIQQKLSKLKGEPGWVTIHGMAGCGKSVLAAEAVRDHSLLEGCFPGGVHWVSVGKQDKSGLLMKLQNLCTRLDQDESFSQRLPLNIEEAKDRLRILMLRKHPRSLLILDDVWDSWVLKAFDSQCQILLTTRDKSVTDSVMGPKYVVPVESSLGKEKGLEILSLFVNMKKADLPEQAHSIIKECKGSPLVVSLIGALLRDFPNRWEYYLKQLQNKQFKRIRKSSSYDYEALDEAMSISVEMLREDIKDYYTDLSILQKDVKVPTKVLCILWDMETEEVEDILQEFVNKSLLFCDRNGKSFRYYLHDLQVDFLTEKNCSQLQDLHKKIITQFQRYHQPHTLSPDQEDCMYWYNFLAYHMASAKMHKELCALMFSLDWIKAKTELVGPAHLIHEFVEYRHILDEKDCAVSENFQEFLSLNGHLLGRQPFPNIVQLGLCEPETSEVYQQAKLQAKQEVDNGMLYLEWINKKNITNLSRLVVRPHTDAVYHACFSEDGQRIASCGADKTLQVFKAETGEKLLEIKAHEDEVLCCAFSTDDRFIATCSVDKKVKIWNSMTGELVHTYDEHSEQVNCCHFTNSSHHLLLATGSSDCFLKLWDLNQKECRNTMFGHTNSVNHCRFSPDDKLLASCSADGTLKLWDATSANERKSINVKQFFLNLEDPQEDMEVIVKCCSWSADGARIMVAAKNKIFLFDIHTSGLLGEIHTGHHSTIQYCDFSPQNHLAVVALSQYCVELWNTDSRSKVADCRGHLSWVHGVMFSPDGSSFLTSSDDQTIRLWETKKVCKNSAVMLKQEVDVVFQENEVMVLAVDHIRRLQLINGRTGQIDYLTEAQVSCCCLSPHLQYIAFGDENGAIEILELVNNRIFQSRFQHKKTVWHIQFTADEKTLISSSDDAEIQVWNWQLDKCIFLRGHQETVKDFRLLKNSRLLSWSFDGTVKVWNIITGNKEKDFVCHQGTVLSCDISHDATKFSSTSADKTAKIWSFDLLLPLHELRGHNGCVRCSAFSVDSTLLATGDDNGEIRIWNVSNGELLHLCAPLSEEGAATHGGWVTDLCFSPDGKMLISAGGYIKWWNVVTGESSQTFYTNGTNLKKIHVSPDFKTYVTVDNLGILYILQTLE

[2] = target: Tyrosyl-DNA phosphodiesterase 2 (Homo sapiens, UniProt O95551); assay: potency against TDP2 phosphodiesterase activity – biochemical, epi absorbance, IC50, dose response (AID 743297)
[3] = viability loss in THP-1 monocytes – THP-1 cells, cytotoxicity control for Vif-APOBEC3G degradation inhibitor project, dose response (AID 1117359); assay type: functional; conditions: THP-1
[4] = target: E3 ubiquitin-protein ligase Mdm2 (Homo sapiens, UniProt Q00987); assay: MDM2-luc reporter signal enhancers, multi-concentration potency testing, MDM2 ubiquitin-protein ligase inhibitor program, whole-cell format, luminescence detection, 384-well microplate (AID 1394); assay type: functional;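 also: MDM2 E3 inhibitors raise luminescence so EC50 is for signal enhancement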
Vero = assay: cells; assay type: functional; conditions: Chlorocebus sabaeus
[5] = SNU-C1 cell viability reduction, dose response, CellTiter-Glo luminescence (AID 1117323); assay type: functional, cell-based
[6] = HCT116 cell viability decrease, GSK3B pretreatment – CellTiter-Glo, IC50, dose response (AID 1117339); assay type: functional; conditions: HCT-116
[7] = cytotoxicity toward HCT116 cells – cell-based, CellTiter-Glo luminescence, IC50, dose response (AID 1117332); assay type: functional; conditions: HCT-116
[8] = cytotoxicity toward HT-29 cells – cell-based, CellTiter-Glo luminescence, IC50, dose response (AID 1117330); assay type: functional
[9] = cytotoxicity toward Colo320 cells – cell-based, CellTiter-Glo luminescence, IC50, dose response (AID 1117334); assay type: functional; conditions: COLO 320
[10] = CellTiter-Glo luminescence survival assay, SW480 colon tumor line, concentration-response curve, half-maximal inhibitory concentration (AID 1117338); assay type: functional
[11] = RKO cell viability reduction, dose response, CellTiter-Glo luminescence (AID 1117322); assay type: functional
[12] = rise of 2N DNA cells, HeLa – IC50, dose response (AID 1117349); assay type: functional, cell-based
[13] = rise of 4N DNA cells, HeLa – IC50, dose response (AID 1117351); assay type: functional, cell-based
[14] = Reduced DLD-1 viability, concentration-response, CellTiter-Glo luminescence (AID 1117352); assay type: functional
Major prion protein = Major prion protein (Homo sapiens, UniProt P04156); assay type: functional, cell-based
[15] = viability inhibitors of stage V gametocytes – luminescence, dose response (AID 1117278); assay type: functional, cell-based;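 also: gametocytes exposed to compound for 24 hours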
[16] = viability loss in human Jurkat cells – cell-based, luminescence, cytotoxicity control for P. falciparum gametocyte viability project, dose response (AID 1117277); assay type: functional;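 also: potency reflects loss of cellular ATP meaning fewer viable cells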
[17] = target: Mitogen-activated protein kinase 10 (Homo sapiens, UniProt P53779); assay: Dose response biochemical screening assay for inhibitors of c-Jun N-Terminal Kinase 3 (JNK3). [Related pubchem assays: 746 ]

## COc1cc2c(cc1O)[C@@H]1Cc3ccc(OC)c(O)c3CN1CC2 [SCOULERINE]
[1]
  IC50: 16.3 µM (active)
[2]
  IC50: > 128 µM (inactive)

## O=[N+]([O-])c1ccc2c([N+](=O)[O-])ccc3c2c1CC3
[3]
  CC50: > 40 µM (active)

## CN(C)c1n/c(=N/Cc2ccco2)ss1
[4]
  EC50: 0.26 µM (active)
Vero
  CC50: 23.8 µM (active)

## CCCSc1ccc2[nH]c(NC(=O)OC)nc2c1 [ALBENDAZOLE]
[5]
  IC50: > 20 µM (inactive)
[6]
  IC50: 0.158 µM (active)
[7]
  IC50: 0.112 µM (active)
[8]
  IC50: > 20 µM (inactive)
[9]
  IC50: 0.502 µM (active)
[10]
  IC50: > 20 µM (inactive)
[11]
  IC50: 0.165 µM (active)
[12]
  IC50: 0.0656 µM (active)
[13]
  IC50: 0.0612 µM (active)
[14]
  IC50: 0.108 µM (active)

## COc1cc2cc(Br)cc(Br)c2nc1C
cells
  IC50: > 138 µM (inactive)
Major prion protein
  IC50: 4.51 µM (active)

## Nc1nc(SCC(=O)N2CCCC2)nc(O)c1NC(=O)c1cccs1
[15]
  IC50: > 109 µM (inactive)
[16]
  IC50: > 83.2 µM (inactive)

## O=c1[nH]c2ccccc2c2nc3ccccn3c12
[17]
  IC50: 13.8 µM (not active)

## COC(=O)CCCC(=O)NC(C)c1cnn(-c2ccccc2C)c1C (stereo not drawn)
[15]
  IC50: > 109 µM (inactive)
[16]
  IC50: > 83.3 µM (inactive)

## CCOc1cc(C2NC(=O)NC(C)=C2C(=O)OCc2ccccc2)ccc1O (stereo not drawn)
[17]
  IC50: 34.6 µM (not active)
